IC50 data for 26 compounds are collected here from patent publication US20080096861A1, “Chemical Compounds” (SMITHKLINE BEECHAM CORPORATION, priority 2004, published 2008).

Where only a bound is given, the exact number is not on record here.

The test has as its system HIV-1 IIIB. Nature of the test: HOS HIV-1 infectivity assay. The following applies: Human immunodeficiency virus 1, IIIB; as determined by the infectivity assay; strain not stated in Table 2; read-out: Activity Level. The format is cell-based. The protocol:
Compounds were profiled against two HIV-1 viruses, the M-tropic (CCR5 utilizing) Ba-L strain and the T-tropic (CXCR4 utilizing) IIIB strain. Both viruses were propagated in human peripheral blood lymphocytes. Compounds were tested for there ability to block infection of the HOS cell line (expressing hCXCR4/hCCR5/hCD4/pHIV-LTR-luciferase) by either HIV-1 Ba-L or HIV-1 IIIB. Compound cytotoxicity was also examined in the absence of virus addition.
HOS cells (expressing hCXCR4/hCCR5/hCD4/pHIV-LTR-luciferase) were harvested and diluted in Dulbeccos modified Eagles media supplemented with 2% FCS and non-essential amino acid to a concentration of 60,000 cells/ml. The cells were plated into 96-well plates (100 ul per well) and the plates were placed in a tissue culture incubator (37° C.; 5% CO2/95% air) for a period of 24 h.
Subsequently, 50 ul of the desired drug solution (4 times the final concentration) was added to each well and the plates were returned to the tissue culture incubator (37° C.; 5% CO2/95% air) for 1 h. Following this incubation 50 ul of diluted virus was added to each well (approximately 2 million RLU per well of virus). The plates were returned to the tissue culture incubator (37° C.; 5% CO2/95% air) and were incubated for a further 96 h.
Following this incubation the endpoint for the virally infected cultures was quantified following addition of Steady-Glo Luciferase assay system reagent (Promega, Madison, Wis.). Cell viability or non-infected cultures was measured using a CellTiter-Glo luminescent cell viability assay system (Promega, Madison, Wis.). All luminescent readouts are performed on a Topcount luminescence detector (Packard, Meridien, Conn.).
Take `CC(C)CCN1CCC[C@@H](Cn2c(CN(C)[C@H]3CCCc4cccnc43)nc3ccccc32)C1` [Example 80, (8S)—N-Methyl-N-[(1-{[(3R)-1-(3-methylbutyl)-3-piperidinyl]methyl}-1H-benzimidazol-2-yl)methyl]-5,6,7,8-tetrahydro-8-quinolinamine]: the IC50 was less than 100 nM.
For the compound `CC(C)N1CCC[C@@H](Cn2c(CN(C)[C@H]3CCCc4cccnc43)nc3ccccc32)C1` [Example 81, (8S)—N-Methyl-N-[(1-{[(3R)-1-(1-methylethyl)-3-piperidinyl]methyl}-1H-benzimidazol-2-yl)methyl]-5,6,7,8-tetrahydro-8-quinolinamine], the IC50 was less than 100 nM.
As to `CC(C)CCN1CCC[C@H](Cn2c(CN(C)[C@@H]3CCCc4cccnc43)nc3ccccc32)C1` [Example 82, (8R)—N-Methyl-N-[(1-{[(3S)-1-(3-methylbutyl)-3-piperidinyl]methyl}-1H-benzimidazol-2-yl)methyl]-5,6,7,8-tetrahydro-8-quinolinamine], the IC50 is less than 100 nM.
As for `CC(C)N1CCC[C@H](Cn2c(CN(C)[C@@H]3CCCc4cccnc43)nc3ccccc32)C1` [Example 83, (8R)—N-methyl-N-[(1-{[(3S)-1-(1-methylethyl)-3-piperidinyl]methyl}-1H-benzimidazol-2-yl)methyl]-5,6,7,8-tetrahydro-8-quinolinamine], the IC50 is less than 100 nM.
For the compound `CC(C)CCN1CCC[C@H](Cn2c(CN(C)[C@H]3CCCc4cccnc43)nc3ccccc32)C1` [Example 84, (8S)—N-Methyl-N-[(1-{[(3S)-1-(3-methylbutyl)-3-piperidinyl]methyl}-1H-benzimidazol-2-yl)methyl]-5,6,7,8-tetrahydro-8-quinolinamine], the IC50 is less than 100 nM.
Take `CC(C)N1CCC[C@H](Cn2c(CN(C)[C@H]3CCCc4cccnc43)nc3ccccc32)C1` [Example 85, (8S)—N-Methyl-N-[(1-{[(3S)-1-(1-methylethyl)-3-piperidinyl]methyl}-1H-benzimidazol-2-yl)methyl]-5,6,7,8-tetrahydro-8-quinolinamine]: the IC50 is less than 100 nM.
Regarding `CN(Cc1nc2ccccc2n1C[C@@H]1CCCN(C(=N)N)C1)[C@@H]1CCCc2cccnc21` [Example 86, (3S)-3-{[2-({Methyl[(8R)-5,6,7,8-tetrahydro-8-quinolinyl]amino}methyl)-1H-benzimidazol-1-yl]methyl}-1-piperidinecarboximidamide], the IC50 lay in the range of 100 to 500 nM.
`CN(Cc1nc2ccccc2n1C[C@@H]1CCCN(C(=N)N)C1)[C@H]1CCCc2cccnc21` [Example 87, (3S)-3-{[2-({Methyl[(8S)-5,6,7,8-tetrahydro-8-quinolinyl]amino}methyl)-1H-benzimidazol-1-yl]methyl}-1-piperidinecarboximidamide]: the IC50 was less than 100 nM.
`CN(Cc1nc2ccccc2n1C[C@H]1CCCN(C(=N)N)C1)[C@@H]1CCCc2cccnc21` [Example 88, (3R)-3-{[2-({Methyl[(8R)-5,6,7,8-tetrahydro-8-quinolinyl]amino}methyl)-1H-benzimidazol-1-yl]methyl}-1-piperidinecarboximidamide]: the IC50 was 100 to 500 nM.
For the compound `CN(Cc1nc2ccccc2n1C[C@H]1CCCN(C(=N)N)C1)[C@H]1CCCc2cccnc21` [Example 89, (3R)-3-{[2-({Methyl[(8S)-5,6,7,8-tetrahydro-8-quinolinyl]amino}methyl)-1H-benzimidazol-1-yl]methyl}-1-piperidinecarboximidamide], the IC50 is less than 100 nM.
Take `CCCN/C(=N\C#N)N1CCC[C@H](Cn2c(CN(C)[C@H]3CCCc4cccnc43)nc3ccccc32)C1` [Example 90, (3R)—N-Cyano-3-{[2-({methyl[(8S)-5,6,7,8-tetrahydro-8-quinolinyl]amino}methyl)-1H-benzimidazol-1-yl]methyl}-N′-propyl-1-piperidinecarboximidamide]: the IC50 is 100 to 500 nM.
With `CN(Cc1nc2ccccc2n1C[C@H]1CCCN(/C(N)=N/C#N)C1)[C@H]1CCCc2cccnc21` [Example 91, (3R)—N-Cyano-3-{[2-({methyl[(8S)-5,6,7,8-tetrahydro-8-quinolinyl]amino}methyl)-1H-benzimidazol-1-yl]methyl}-1-piperidinecarboximidamide], the IC50 is less than 100 nM.
Take `CN(C)/C(=N\C#N)N1CCC[C@H](Cn2c(CN(C)[C@H]3CCCc4cccnc43)nc3ccccc32)C1` [Example 92, (3R)—N′-Cyano-N,N-dimethyl-3-{[2-({methyl[(8S)-5,6,7,8-tetrahydro-8-quinolinyl]amino}methyl)-1H-benzimidazol-1-yl]methyl}-1-piperidinecarboximidamide]: the IC50 fell in the range of 100 to 500 nM.
Take `CCCN(Cc1nc2ccccc2n1C[C@H]1CCCN(C)C1)[C@H]1CCCc2cccnc21` [Example 93, (8S)—N-[(1-{[(3S)-1-Methyl-3-piperidinyl]methyl}-1H-benzimidazol-2-yl)methyl]-N-propyl-5,6,7,8-tetrahydro-8-quinolinamine]: the IC50 is less than 100 nM.
The value for `CC(C)CN(Cc1nc2ccccc2n1C[C@H]1CCCN(C)C1)[C@H]1CCCc2cccnc21` [Example 94, (8S)—N-[(1-{[(3S)-1-Methyl-3-piperidinyl]methyl}-1H-benzimidazol-2-yl)methyl]-N-(2-methylpropyl)-5,6,7,8-tetrahydro-8-quinolinamine] was 100 to 500 nM; that for `CN1CCC[C@H](Cn2c(CN(CCO)[C@H]3CCCc4cccnc43)nc3ccccc32)C1` [Example 95, 2-{[(1-{[(3S)-1-Methyl-3-piperidinyl]methyl}-1H-benzimidazol-2-yl)methyl][(8S)-5,6,7,8-tetrahydro-8-quinolinyl]amino}ethanol] was less than 100 nM; that for `CN1CCC[C@H](Cn2c(CN(CCCO)[C@H]3CCCc4cccnc43)nc3ccccc32)C1` [Example 96, 3-{[(1-{[(3S)-1-Methyl-3-piperidinyl]methyl}-1H-benzimidazol-2-yl)methyl][(8S)-5,6,7,8-tetrahydro-8-quinolinyl]amino}-1-propanol] was less than 100 nM.
For the compound `CCCN(Cc1nc2ccccc2n1C[C@H]1CCCN(C(C)C)C1)[C@H]1CCCc2cccnc21` [Example 97, (8S)—N-[(1-{[(3S)-1-(1-methylethyl)-3-piperidinyl]methyl}-1H-benzimidazol-2-yl)methyl]-N-propyl-5,6,7,8-tetrahydro-8-quinolinamine], the IC50 is less than 100 nM.
With `CC(C)CN(Cc1nc2ccccc2n1C[C@H]1CCCN(C(C)C)C1)[C@H]1CCCc2cccnc21` [Example 98, (8S)—N-[(1-{[(3S)-1-(1-Methylethyl)-3-piperidinyl]methyl}-1H-benzimidazol-2-yl)methyl]-N-(2-methylpropyl)-5,6,7,8-tetrahydro-8-quinolinamine], the IC50 is 100 to 500 nM.
The value for `CC(C)N1CCC[C@H](Cn2c(CN(CCO)[C@H]3CCCc4cccnc43)nc3ccccc32)C1` [Example 99, 2-{[(1-{[(3S)-1-(1-Methylethyl)-3-piperidinyl]methyl}-1H-benzimidazol-2-yl)methyl][(8S)-5,6,7,8-tetrahydro-8-quinolinyl]amino}ethanol] was less than 100 nM; that for `CC(C)N1CCC[C@H](Cn2c(CN(CCCO)[C@H]3CCCc4cccnc43)nc3ccccc32)C1` [Example 100, 3-{[(1-{[(3S)-1-(1-Methylethyl)-3-piperidinyl]methyl}-1H-benzimidazol-2-yl)methyl][(8S)-5,6,7,8-tetrahydro-8-quinolinyl]amino}-1-propanol] was less than 100 nM; that for `CN(C)CC(C)(C)CN1CCC[C@H](Cn2c(CN(C)[C@H]3CCCc4cccnc43)nc3ccccc32)C1` [Example 101, (8S)—N-{[1-({(3S)-1-[3-(Dimethylamino)-2,2-dimethylpropyl]-3-piperidinyl}methyl)-1H-benzimidazol-2-yl]methyl}-N-methyl-5,6,7,8-tetrahydro-8-quinolinamine] was less than 100 nM.
Regarding `CN(Cc1nc2ccccc2n1C[C@H]1CCCN(Cc2cccs2)C1)[C@H]1CCCc2cccnc21` [Example 102, (8S)—N-Methyl-N-[(1-{[(3S)-1-(2-thienylmethyl)-3-Piperidinyl]methyl}-1H-benzimidazol-2-yl)methyl]-5,6,7,8-tetrahydro-8-quinolinamine], the IC50 is less than 100 nM.
In the case of `CN(Cc1nc2ccccc2n1C[C@H]1CCCN(Cc2nccs2)C1)[C@H]1CCCc2cccnc21` [Example 103, (8S)—N-Methyl-N-[(1-{[(3S)-1-(1,3-thiazol-2-ylmethyl)-3-piperidinyl]methyl}-1H-benzimidazol-2-yl)methyl]-5,6,7,8-tetrahydro-8-quinolinamine], the IC50 lay in the range of 100 to 500 nM.
On to `CN(Cc1nc2ccccc2n1C[C@H]1CCCN(Cc2cccn2C)C1)[C@H]1CCCc2cccnc21` [Example 104, (8S)—N-Methyl-N-{[1-({(3S)-1-[(1-methyl-1H-pyrrol-2-yl)methyl]-3-piperidinyl}methyl)-1H-benzimidazol-2-yl]methyl}-5,6,7,8-tetrahydro-8-quinolinamine], for which the IC50 is less than 100 nM.
Regarding `CN(C)CCN1CCC[C@H](Cn2c(CN(C)[C@H]3CCCc4cccnc43)nc3ccccc32)C1` [Example 105, (8S)—N-{[1-({(3S)-1-[2-(Dimethylamino)ethyl]-3-piperidinyl}methyl)-1H-benzimidazol-2-yl]methyl}-N-methyl-5,6,7,8-tetrahydro-8-quinolinamine], the IC50 was less than 100 nM.
